The record followed here is patent US20230393140A1, “BINDING ASSAYS INVOLVING A PLURALITY OF SYNTHETIC COMPOUNDS, TARGETS, AND COUNTER TARGETS” (SRI International, priority 2020, published 2023).

By Kd is commonly meant the constant that tells how readily two partners part at equilibrium.

Numbered stars: 1 amine (or outer) side, 2 acyl side, 3 side chain; on linkers, the order of the positions; unused ones are H or OH. Square brackets hold non-standard residues; d marks the D form. Peptide text beside a SMILES is read from it. * marks the point of attachment. 5FAM = O=C1OC2(c3ccc(O)cc3Oc3cc(O)ccc32)c2ccc(C(=O)*)cc21; NHCH2C6H4(4-CH2CONH2) = NC(=O)Cc1ccc(CN*)cc1; X1 = O=C(Cc1ccc(CN[*:1])cc1)[*:2]

Sequence of TNFα (P01375 77-233 limits assumed): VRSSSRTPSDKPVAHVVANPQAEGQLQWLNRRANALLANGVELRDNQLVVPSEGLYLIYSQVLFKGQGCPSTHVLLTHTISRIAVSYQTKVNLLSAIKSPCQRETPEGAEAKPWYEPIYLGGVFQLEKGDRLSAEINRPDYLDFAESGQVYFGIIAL

For this test, the target named is TNFα (Homo sapiens, UniProt P01375). Nature of the test: MST binding affinity of resynthesized NNP hits to TNFα. Details: purchased R&D Systems, Inc. 210-TA/CF. The following applies: read-out: KD (nM) [95% conf. int], NNP2 library hit, target TNFα, one-site binding model. The method, then:
Hit binding affinity to various targets were determined using Microscale Thermophoresis (MST). MST experiments were performed on a Monolith NT.115pico (NanoTemper Technologies GmbH, Munich, Germany). Measurements were performed at room temperature, in triplicate with incubation periods of 15, 30 and 45 minutes. […] Targets were labeled using Nanotemper Monolith 2nd Generation Protein Labeling Kits. RED-MALEIMIDE (Maleimide-647-dye) labeling kit was used for K-Ras and RED-NHS (NHS-647-dye) labeling kit was used for IL-6, IL-6R, TNFα and ASGPR. The buffer for the ASGPR contained 20 mM HEPES pH 7.4, 150 mM NaCl, 10 mM MgCl2, 2 mM CaCl2, 0.05% Pluronic F-127, and 1 mM DTT; for IL-6 contained 20 mM HEPES pH 7.4, 150 mM KCl, 10 mM MgCl2, and 0.1% Pluronic F-127; for the soluble IL-6 receptor 20 mM HEPES pH 7.4, 150 mM NaCl, 10 mM MgCl2, and 0.05% Tween-20; for K-Ras 20 mM HEPES pH 7.4, 150 mM NaCl, 10 mM MgCl2, 0.05% Tween-20 and 1 mM DTT; for TNFα 10 mM HEPES pH 7.4, 150 mM NaCl, 10 mM MgCl2, 0.05% Polysorbate-20. Triplicate data was analyzed using MO.AffinityAnalysis software (NanoTemper Technologies GmbH).
With `CC(C)C[C@H](NC(=O)[C@@H](CCCNC(=N)N)NC(=O)[C@@H](Cc1c[nH]c2ccccc12)NC(=O)Cc1ccc(CNC(=O)[C@H](CC(C)C)NC(=O)[C@@H](CCCCN)NC(=O)[C@@H](CC(C)C)NC(=O)Cc2ccc(CNC(=O)[C@H](CC(C)C)NC(=O)[C@@H](CCCNC(=N)N)NC(=O)[C@@H](CC(C)C)NC(=O)Cc3ccc(CNC(=O)[C@H](Cc4ccccc4)NC(=O)[C@@H](CC(C)C)NC(=O)[C@H](NC(=O)c4ccc5c(c4)C(=O)OC54c5ccc(O)cc5Oc5cc(O)ccc54)[C@H](C)O)cc3)cc2)cc1)C(=O)NCc1ccc(CC(=O)N[C@H](C)C(=O)N[C@H](CCCCN)C(=O)N[C@@H](Cc2ccccc2)C(=O)NCc2ccc(CC(=O)N[C@H](CCC(=O)O)C(=O)N[C@H](CO)C(=O)N[C@H](C(=O)NCc3ccc(CC(=O)N4CCC[C@@H]4C(=O)N[C@@H](C(=O)NCC(=O)NCc4ccc(CC(=O)N[C@H](CCC(=O)O)C(=O)N[C@H](Cc5ccc(O)cc5)C(=O)N[C@@H](Cc5ccccc5)C(=O)NCc5ccc(CC(=O)N[C@H](Cc6ccc(O)cc6)C(=O)N[C@H](CCCNC(=N)N)C(=O)N[C@@H](Cc6ccccc6)C(=O)NCc6ccc(CC(N)=O)cc6)cc5)cc4)C(C)C)cc3)C(C)C)cc2)cc1` [TNF-31-4] (5FAM-[dT][dL]F[X1][dL][dR]L[X1][dL][dK]L[X1][dW][dR]L[X1][dA][dK]F[X1][dE][dS]V[X1][dP][dV]G[X1][dE][dY]F[X1][dY][dR]F-{NHCH2C6H4(4-CH2CONH2)}), the Kd came out at 33 nM.

Turning to `CC(C)C[C@H](NC(=O)[C@@H](CCCNC(=N)N)NC(=O)CNC(=O)Cc1ccc(CNC(=O)[C@H](CC(C)C)NC(=O)[C@H](NC(=O)[C@@H](CCCCN)NC(=O)c2ccc3c(c2)C(=O)OC32c3ccc(O)cc3Oc3cc(O)ccc32)C(C)C)cc1)C(=O)NCc1ccc(CC(=O)N[C@H](Cc2ccccc2)C(=O)N[C@H](CCC(=O)O)C(=O)N[C@H](C(=O)NCc2ccc(CC(=O)N3CCC[C@@H]3C(=O)N[C@H](CCCNC(=N)N)C(=O)N[C@H](C(=O)NCc3ccc(CC(=O)N[C@H](C)C(=O)N[C@H](CCCCN)C(=O)N[C@@H](Cc4ccccc4)C(=O)NCc4ccc(CC(=O)N[C@H](CCC(=O)O)C(=O)N[C@H](CO)C(=O)N[C@H](C(=O)NCc5ccc(CC(=O)N6CCC[C@@H]6C(=O)N[C@@H](C(=O)NCC(=O)NCc6ccc(CC(=O)N[C@@H](C(=O)N[C@H](Cc7c[nH]cn7)C(=O)N[C@@H](CC(C)C)C(=O)NCc7ccc(CC(=O)N[C@H](Cc8ccc(O)cc8)C(=O)N[C@H](CCCNC(=N)N)C(=O)N[C@@H](Cc8ccccc8)C(=O)NCc8ccc(CC(N)=O)cc8)cc7)[C@H](C)O)cc6)C(C)C)cc5)C(C)C)cc4)cc3)C(C)C)cc2)C(C)C)cc1` [TNF-31-5] (5FAM-[dK][dV]L[X1]G[dR]L[X1][dF][dE]V[X1][dP][dR]V[X1][dA][dK]F[X1][dE][dS]V[X1][dP][dV]G[X1][dT][dH]L[X1][dY][dR]F-{NHCH2C6H4(4-CH2CONH2)}), the Kd turned out to be 24 nM.

`CC(C)C[C@H](NC(=O)[C@@H](CCCNC(=N)N)NC(=O)[C@@H](C)NC(=O)Cc1ccc(CNC(=O)[C@H](Cc2ccccc2)NC(=O)[C@@H](CCCNC(=N)N)NC(=O)[C@@H](CC(N)=O)NC(=O)Cc2ccc(CNC(=O)[C@H](Cc3ccccc3)NC(=O)[C@@H](CCCCN)NC(=O)[C@@H](C)NC(=O)Cc3ccc(CNC(=O)[C@H](C)NC(=O)[C@@H](CCCNC(=N)N)NC(=O)[C@@H](Cc4ccccc4)NC(=O)Cc4ccc(CNC(=O)[C@H](CC(C)C)NC(=O)[C@@H](CCCCN)NC(=O)[C@@H](CC(C)C)NC(=O)Cc5ccc(CNC(=O)[C@H](CC(C)C)NC(=O)[C@@H](CCCNC(=N)N)NC(=O)[C@@H](CC(C)C)NC(=O)Cc6ccc(CNC(=O)[C@H](CC(C)C)NC(=O)[C@@H](CC(C)C)NC(=O)[C@@H](Cc7ccc(O)cc7)NC(=O)c7ccc8c(c7)C(=O)OC87c8ccc(O)cc8Oc8cc(O)ccc87)cc6)cc5)cc4)cc3)cc2)cc1)C(=O)NCc1ccc(CC(=O)N[C@H](Cc2c[nH]c3ccccc23)C(=O)N[C@H](CCCCN)C(=O)N[C@@H](CC(C)C)C(=O)NCc2ccc(CC(=O)N3CCC[C@@H]3C(=O)N[C@H](C)C(=O)N[C@@H](C)C(=O)NCc3ccc(CC(N)=O)cc3)cc2)cc1` [TNF-31-14] (5FAM-[dY][dL]L[X1][dL][dR]L[X1][dL][dK]L[X1][dF][dR]A[X1][dA][dK]F[X1][dN][dR]F[X1][dA][dR]L[X1][dW][dK]L[X1][dP][dA]A-{NHCH2C6H4(4-CH2CONH2)}): the Kd came to 35 nM.

For `CC(C)C[C@H](NC(=O)[C@@H](CCCNC(=N)N)NC(=O)[C@@H](CCC(=O)O)NC(=O)Cc1ccc(CNC(=O)[C@H](C)NC(=O)[C@@H](CCCCN)NC(=O)[C@@H](Cc2ccc(O)cc2)NC(=O)Cc2ccc(CNC(=O)[C@H](C)NC(=O)[C@@H](CCCNC(=N)N)NC(=O)[C@@H](Cc3ccccc3)NC(=O)Cc3ccc(CNC(=O)[C@H](CC(C)C)NC(=O)[C@H](NC(=O)[C@@H](CCCNC(=N)N)NC(=O)Cc4ccc(CNC(=O)[C@H](CC(C)C)NC(=O)[C@@H](CCCNC(=N)N)NC(=O)[C@@H](CC(C)C)NC(=O)Cc5ccc(CNC(=O)[C@H](CC(C)C)NC(=O)[C@H](NC(=O)[C@@H](CCCCN)NC(=O)c6ccc7c(c6)C(=O)OC76c7ccc(O)cc7Oc7cc(O)ccc76)C(C)C)cc5)cc4)C(C)C)cc3)cc2)cc1)C(=O)NCc1ccc(CC(=O)N2CCC[C@@H]2C(=O)N[C@@H](C(=O)NCC(=O)NCc2ccc(CC(=O)N[C@H](CCCCN)C(=O)N[C@H](Cc3ccccc3)C(=O)N[C@@H](Cc3ccccc3)C(=O)NCc3ccc(CC(=O)N[C@H](Cc4c[nH]cn4)C(=O)N[C@H](CCC(=O)O)C(=O)N[C@H](C(=O)NCc4ccc(CC(N)=O)cc4)C(C)C)cc3)cc2)C(C)C)cc1` [TNF-31-15] (5FAM-[dK][dV]L[X1][dL][dR]L[X1][dR][dV]L[X1][dF][dR]A[X1][dY][dK]A[X1][dE][dR]L[X1][dP][dV]G[X1][dK][dF]F[X1][dH][dE]V-{NHCH2C6H4(4-CH2CONH2)}), the dissociation constant Kd stood at 23 nM.

For the compound `CC(C)C[C@H](NC(=O)[C@@H](CCC(=O)O)NC(=O)[C@H]1CCCN1C(=O)Cc1ccc(CNC(=O)[C@H](CC(C)C)NC(=O)[C@@H](CCCCN)NC(=O)[C@@H](Cc2ccccc2)NC(=O)Cc2ccc(CNC(=O)[C@@H](NC(=O)[C@@H](CCC(=O)O)NC(=O)[C@@H](Cc3ccccc3)NC(=O)Cc3ccc(CNC(=O)[C@H](CC(C)C)NC(=O)[C@@H](CCCNC(=N)N)NC(=O)[C@@H](CC(C)C)NC(=O)Cc4ccc(CNC(=O)[C@H](CC(C)C)NC(=O)[C@H](NC(=O)[C@@H](CCCCN)NC(=O)c5ccc6c(c5)C(=O)OC65c6ccc(O)cc6Oc6cc(O)ccc65)C(C)C)cc4)cc3)C(C)C)cc2)cc1)C(=O)NCc1ccc(CC(=O)N[C@H](Cc2ccccc2)C(=O)N[C@@H](C(=O)N[C@@H](C)C(=O)NCc2ccc(CC(=O)N[C@H](Cc3c[nH]cn3)C(=O)N[C@H](CCC(=O)O)C(=O)N[C@@H](CC(C)C)C(=O)NCc3ccc(CC(=O)N[C@H](CCC(=O)O)C(=O)N[C@H](Cc4ccc(O)cc4)C(=O)N[C@@H](Cc4ccccc4)C(=O)NCc4ccc(CC(=O)N[C@@H](C(=O)N[C@H](CO)C(=O)N[C@H](C(=O)NCc5ccc(CC(N)=O)cc5)C(C)C)[C@H](C)O)cc4)cc3)cc2)[C@H](C)O)cc1` [TNF-31-16] (5FAM-[dK][dV]L[X1][dL][dR]L[X1][dF][dE]V[X1][dF][dK]L[X1][dP][dE]L[X1][dF][dT]A[X1][dH][dE]L[X1][dE][dY]F[X1][dT][dS]V-{NHCH2C6H4(4-CH2CONH2)}), the Kd was 180 nM.

Turning to `CC(C)C[C@H](NC(=O)[C@@H](CCCNC(=N)N)NC(=O)[C@@H](CC(C)C)NC(=O)Cc1ccc(CNC(=O)[C@H](CC(C)C)NC(=O)[C@H](NC(=O)[C@@H](CCCCN)NC(=O)c2ccc3c(c2)C(=O)OC32c3ccc(O)cc3Oc3cc(O)ccc32)C(C)C)cc1)C(=O)NCc1ccc(CC(=O)N[C@H](CCCNC(=N)N)C(=O)N[C@@H](C(=O)N[C@@H](CC(C)C)C(=O)NCc2ccc(CC(=O)N[C@H](Cc3ccccc3)C(=O)N[C@H](CCCNC(=N)N)C(=O)N[C@@H](C)C(=O)NCc3ccc(CC(=O)N[C@H](C)C(=O)N[C@H](CCCCN)C(=O)N[C@@H](Cc4ccccc4)C(=O)NCc4ccc(CC(=O)N[C@H](CC(N)=O)C(=O)N[C@H](CCCNC(=N)N)C(=O)N[C@@H](Cc5ccccc5)C(=O)NCc5ccc(CC(=O)N6CCC[C@@H]6C(=O)N[C@@H](C(=O)NCC(=O)NCc6ccc(CC(=O)N[C@H](CCC(=O)O)C(=O)N[C@H](CCCNC(=N)N)C(=O)N[C@H](C(=O)NCc7ccc(CC(=O)N[C@H](Cc8ccc(O)cc8)C(=O)N[C@H](CCCNC(=N)N)C(=O)N[C@@H](Cc8ccccc8)C(=O)NCc8ccc(CC(N)=O)cc8)cc7)C(C)C)cc6)C(C)C)cc5)cc4)cc3)cc2)C(C)C)cc1` [TNF-39-1] (5FAM-[dK][dV]L[X1][dL][dR]L[X1][dR][dV]L[X1][dF][dR]A[X1][dA][dK]F[X1][dN][dR]F[X1][dP][dV]G[X1][dE][dR]V[X1][dY][dR]F-{NHCH2C6H4(4-CH2CONH2)}), the Kd was determined as 116 nM.
